pIC50: −log10 of the molar value.
How the values were obtained:
[1] = Activity against CMP-KDO synthetase (CKS) from Escherichia coli D21,the compound gave rise to a strongly interfering absorption in the thiobarbituric acid assay
[2] = Activity against CMP-KDO synthetase-KDO-lipid A transferase (CKS-KLT) assay from Escherichia coli D21
[3] = Activity against CMP-KDO synthetase (CKS) from Escherichia coli D21
[4] = Activity against CMP-KDO synthetase (CKS) from Escherichia coli D21, the compound gave rise to a strongly interfering absorption in the thiobarbituric acid assay

| SMILES | IC50 [1] | pIC50 [2] | pIC50 [3] | IC50 [4] |
| --- | --- | --- | --- | --- |
| NC[C@@H](O)[C@H]1O[C@H](C(=O)O)C[C@@H](O)[C@H]1O | Strongly interfering absorption | 5.13 | – | – |
| O=C(O)[C@@H]1C[C@@H](O)[C@@H](O)[C@@H]([C@H](O)CO)O1 | – | 5.00 | 4.74 | – |
| O=C(O)[C@@H]1C[C@@H](O)[C@@H](O)[C@@H]([C@H](O)CF)O1 | – | 5.32 | 4.62 | – |
| N.[N-]=[N+]=NC[C@@H](O)[C@H]1O[C@H](C(=O)O)C[C@@H](O)[C@H]1O | – | 4.10 | – | Strongly interfering absorption |
| N.O=C(O)[C@@H]1C[C@@H](O)[C@@H](O)[C@@H]([C@H](O)CS)O1 | Strongly interfering absorption | 4.77 | – | – |
| C[C@@H](O)[C@H]1O[C@H](C(=O)O)C[C@@H](O)[C@H]1O | – | 5.17 | 4.66 | – |

Source: ChEMBL document CHEMBL1124661, “Synthesis of 8-substituted derivatives of the 2-deoxy analogue of 3-deoxy-beta-D-manno-2-octulopyranosonic acid (2-deoxy-beta-KDO) as inhibitors of 3-deoxy-D-manno-octulosonate cytidylyltransferase” (J Med Chem, 1989)
